From ChEMBL document CHEMBL1201862, “PubChem BioAssay data set” (2004)
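96-well plates; 48 h exposure; 5 concentrations. Endpoints by linear interpolation between flanking doses. Not reached: highest tested concentration assigned. At the GI50, growth is halved.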 The source made the active and inactive calls. Rule as the data show it: active = GI50 up to about 1.1 µM and inactive = higher.

Assays:
Assay in all cases: NCI-60 cell line screen, 48 h
T47D = tested on: T47D
LOX IMVI = tested on: LOX IMVI
EKVX = tested on: EKVX
NCI-H226 = tested on: NCI-H226
SF-295 = tested on: SF-295
HCT-116 = tested on: HCT-116
HOP-62 = tested on: HOP-62
SR = tested on: SR
OVCAR-4 = tested on: OVCAR-4
PC-3 = tested on: PC-3
CCRF-CEM = tested on: CCRF-CEM
SK-MEL-2 = tested on: SK-MEL-2
HL-60 = tested on: HL-60
SK-MEL-5 = tested on: SK-MEL-5
CAKI-1 = tested on: CAKI-1
BT-549 = tested on: BT-549
COLO 205 = tested on: COLO 205
UACC-62 = tested on: UACC-62
K562 = tested on: K562
SW-620 = tested on: SW-620
A549 = tested on: A549
786-0 = tested on: 786-0
MDA-MB-231 = tested on: MDA-MB-231
A498 = tested on: A498
M14 = tested on: M14
Malme-3M = tested on: Malme-3M
OVCAR-8 = tested on: OVCAR-8
DU-145 = tested on: DU-145
SF-268 = tested on: SF-268
SN12C = tested on: SN12C
HT-29 = tested on: HT-29
OVCAR-5 = tested on: OVCAR-5
SK-OV-3 = tested on: SK-OV-3
TK-10 = tested on: TK-10
MDA-N = tested on: MDA-N
HCT-15 = tested on: HCT-15
KM12 = tested on: KM12
SF-539 = tested on: SF-539
IGROV-1 = tested on: IGROV-1
OVCAR-3 = tested on: OVCAR-3
SNB-19 = tested on: SNB-19
NCI/ADR-RES = tested on: NCI/ADR-RES
UO-31 = tested on: UO-31
UACC-257 = tested on: UACC-257
MCF7 = tested on: MCF7
HCC 2998 = tested on: HCC 2998
U-251 = tested on: U-251
Hs-578T = tested on: Hs-578T
NCI-H522 = tested on: NCI-H522
ACHN = tested on: ACHN
SK-MEL-28 = tested on: SK-MEL-28
NCI-H23 = tested on: NCI-H23
HOP-92 = tested on: HOP-92
MOLT-4 = tested on: MOLT-4
NCI-H460 = tested on: NCI-H460
MDA-MB-435 = tested on: MDA-MB-435
SNB-75 = tested on: SNB-75
RPMI-8226 = tested on: RPMI-8226

COc1ccc(-c2cc(=O)c3c(O)c(OC)c(OC)c(OC)c3o2)cc1OC [5-DEMETHYLNOBILETIN]
GI50 (T47D): 4.28 µM (inactive)
GI50 (LOX IMVI): 47.8 µM (inactive)
GI50 (EKVX): > 100 µM (inactive)
GI50 (NCI-H226): > 100 µM (inactive)
GI50 (SF-295): > 100 µM (inactive)
GI50 (HCT-116): > 100 µM (inactive)
GI50 (HOP-62): 19.5 µM (inactive)
GI50 (SR): > 100 µM (inactive)
GI50 (OVCAR-4): > 100 µM (inactive)
GI50 (PC-3): > 100 µM (inactive)
GI50 (CCRF-CEM): > 100 µM (inactive)
GI50 (SK-MEL-2): 91.2 µM (inactive)
GI50 (HL-60): > 100 µM (inactive)
GI50 (SK-MEL-5): 27.4 µM (inactive)
GI50 (CAKI-1): > 100 µM (inactive)
GI50 (BT-549): 50.9 µM (inactive)
GI50 (COLO 205): > 100 µM (inactive)
GI50 (UACC-62): > 100 µM (inactive)
GI50 (K562): > 100 µM (inactive)
GI50 (SW-620): > 10 µM (inactive)
GI50 (A549): > 100 µM (inactive)
GI50 (786-0): 58.7 µM (inactive)
GI50 (MDA-MB-231): > 100 µM (inactive)
GI50 (A498): > 100 µM (inactive)
GI50 (M14): > 100 µM (inactive)
GI50 (Malme-3M): > 100 µM (inactive)
GI50 (OVCAR-8): > 100 µM (inactive)
GI50 (DU-145): > 100 µM (inactive)
GI50 (SF-268): 10.1 µM (inactive)
GI50 (SN12C): > 100 µM (inactive)
GI50 (HT-29): > 100 µM (inactive)
GI50 (OVCAR-5): > 100 µM (inactive)
GI50 (SK-OV-3): 20.4 µM (inactive)
GI50 (TK-10): 67.1 µM (inactive)
GI50 (MDA-N): > 100 µM (inactive)
GI50 (HCT-15): > 100 µM
GI50 (KM12): > 100 µM (inactive)
GI50 (SF-539): 86.5 µM (inactive)
GI50 (IGROV-1): 53.1 µM (inactive)
GI50 (OVCAR-3): > 100 µM (inactive)
GI50 (SNB-19): > 100 µM (inactive)
GI50 (NCI/ADR-RES): 14.5 µM (inactive)
GI50 (UO-31): > 100 µM (inactive)
GI50 (UACC-257): > 100 µM (inactive)
GI50 (MCF7): > 100 µM (inactive)
GI50 (HCC 2998): > 100 µM (inactive)
GI50 (U-251): 39.7 µM (inactive)
GI50 (Hs-578T): 12.6 µM (inactive)
GI50 (NCI-H522): 8.97 µM (inactive)
GI50 (ACHN): > 100 µM (inactive)
GI50 (SK-MEL-28): > 100 µM (inactive)
GI50 (NCI-H23): > 100 µM (inactive)
GI50 (HOP-92): 3.73 µM (inactive)
GI50 (MOLT-4): > 100 µM (inactive)

CN1CCN(CCCN2c3ccccc3Sc3ccc(C(F)(F)F)cc32)CC1
GI50 (T47D): 6.1 µM (inactive)
GI50 (LOX IMVI): 2.73 µM (inactive)
GI50 (EKVX): 10.6 µM (inactive)
GI50 (NCI-H226): 13.2 µM (inactive)
GI50 (SF-295): 5.79 µM (inactive)
GI50 (HCT-116): 4.25 µM (inactive)
GI50 (NCI-H460): 2.24 µM (inactive)
GI50 (HOP-62): 11.3 µM (inactive)
GI50 (OVCAR-4): 8.81 µM (inactive)
GI50 (PC-3): 4.58 µM (inactive)
GI50 (SK-MEL-2): 4.18 µM (inactive)
GI50 (HL-60): 4.58 µM (inactive)
GI50 (SK-MEL-5): 1.91 µM (inactive)
GI50 (CAKI-1): 9.64 µM (inactive)
GI50 (BT-549): 12.1 µM (inactive)
GI50 (UACC-62): 2.06 µM (inactive)
GI50 (A549): 10.2 µM (inactive)
GI50 (786-0): 4.14 µM (inactive)
GI50 (A498): 12.6 µM (inactive)
GI50 (M14): 1.72 µM (inactive)
GI50 (Malme-3M): 1.45 µM (inactive)
GI50 (OVCAR-8): 13.1 µM (inactive)
GI50 (DU-145): 10.5 µM (inactive)
GI50 (SF-268): 7.78 µM (inactive)
GI50 (SN12C): 7.57 µM (inactive)
GI50 (HT-29): 2.35 µM (inactive)
GI50 (OVCAR-5): 11.2 µM (inactive)
GI50 (SK-OV-3): 13.5 µM (inactive)
GI50 (MDA-N): 3.2 µM (inactive)
GI50 (HCT-15): 4.33 µM
GI50 (KM12): 2.94 µM (inactive)
GI50 (SF-539): 4.65 µM (inactive)
GI50 (MDA-MB-435): 2.92 µM (inactive)
GI50 (SNB-19): 11.4 µM (inactive)
GI50 (NCI/ADR-RES): 8.22 µM (inactive)
GI50 (UO-31): 6.32 µM (inactive)
GI50 (UACC-257): 1.91 µM (inactive)
GI50 (MCF7): 4.61 µM (inactive)
GI50 (U-251): 4.95 µM (inactive)
GI50 (Hs-578T): 3.4 µM (inactive)
GI50 (ACHN): 10.7 µM (inactive)
GI50 (SNB-75): 4.31 µM (inactive)
GI50 (SK-MEL-28): 1.66 µM (inactive)
GI50 (NCI-H23): 11.1 µM (inactive)
GI50 (MOLT-4): 2.92 µM (inactive)

CC1=C/C(O)CC(=O)Cc2nc(co2)C(=O)N2CCC=C2C(=O)OC(C(C)C)C(C)/C=C\C(=O)NC/C=C\1 (centres undefined)
GI50 (T47D): 12.2 µM (inactive)
GI50 (LOX IMVI): 17.2 µM (inactive)
GI50 (EKVX): 18.8 µM (inactive)
GI50 (NCI-H226): 17.7 µM (inactive)
GI50 (SF-295): 48 µM (inactive)
GI50 (HCT-116): 14.5 µM (inactive)
GI50 (NCI-H460): 54 µM (inactive)
GI50 (HOP-62): 31.5 µM (inactive)
GI50 (SR): 15 µM (inactive)
GI50 (OVCAR-4): 57.9 µM (inactive)
GI50 (PC-3): 27.1 µM (inactive)
GI50 (CCRF-CEM): 21.6 µM (inactive)
GI50 (SK-MEL-2): 17.4 µM (inactive)
GI50 (HL-60): 20.3 µM (inactive)
GI50 (SK-MEL-5): 33.4 µM (inactive)
GI50 (CAKI-1): 22 µM (inactive)
GI50 (BT-549): 20.5 µM (inactive)
GI50 (COLO 205): 16.3 µM (inactive)
GI50 (UACC-62): 16 µM (inactive)
GI50 (K562): 31 µM (inactive)
GI50 (SW-620): 18.1 µM (inactive)
GI50 (A549): 29.9 µM (inactive)
GI50 (786-0): 20.8 µM (inactive)
GI50 (MDA-MB-231): 23.9 µM (inactive)
GI50 (A498): 23.6 µM (inactive)
GI50 (M14): 17.3 µM (inactive)
GI50 (Malme-3M): 11.7 µM (inactive)
GI50 (OVCAR-8): 15.3 µM (inactive)
GI50 (DU-145): 27.1 µM (inactive)
GI50 (SF-268): 16 µM (inactive)
GI50 (SN12C): 14.9 µM (inactive)
GI50 (HT-29): 15.5 µM (inactive)
GI50 (OVCAR-5): 18.8 µM (inactive)
GI50 (SK-OV-3): 53.1 µM (inactive)
GI50 (TK-10): 31.6 µM (inactive)
GI50 (MDA-N): 14.2 µM (inactive)
GI50 (HCT-15): 19.8 µM
GI50 (KM12): 12.4 µM (inactive)
GI50 (SF-539): 30.1 µM (inactive)
GI50 (IGROV-1): 16.6 µM (inactive)
GI50 (OVCAR-3): 19.8 µM (inactive)
GI50 (RPMI-8226): 12.9 µM (inactive)
GI50 (MDA-MB-435): 24.8 µM (inactive)
GI50 (SNB-19): 89.3 µM (inactive)
GI50 (UACC-257): 35.3 µM (inactive)
GI50 (MCF7): 19.1 µM (inactive)
GI50 (HCC 2998): 19.1 µM (inactive)
GI50 (U-251): 35.8 µM (inactive)
GI50 (Hs-578T): 20 µM (inactive)
GI50 (NCI-H522): 0.176 µM (active)
GI50 (ACHN): 12.5 µM (inactive)
GI50 (SNB-75): 11.3 µM (inactive)
GI50 (SK-MEL-28): 19.6 µM (inactive)
GI50 (NCI-H23): 17.1 µM (inactive)
GI50 (MOLT-4): 16.6 µM (inactive)
